Consider ten compounds from PubChem BioAssay (NCI).

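Cells were grown in 96-well plates and exposed to each compound for 48 hours at five concentrations; endpoints were interpolated linearly between bracketing concentrations, or set to the highest concentration if not reached. Definition used: TGI = concentration required for complete inhibition of growth.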

Common to all, as to assay: inhibition of tumour cell growth, NCI panel, 48 h
Test [1] has as its system ACHN renal.
In test [2] the test system is COLO 205 colon.
Test [3] has as its system HCC-2998 colon.
In test [4] the test system is HCT-116 colon.
Test [5] relates to HS 578T breast.
The test system of test [6] is HT29 colon.
For test [7], the system named is IGROV1 ovarian.
The subject of test [8] is NCI-H460 lung.
Test [9] deals with NCI-H522 lung.
In test [10] the test system is SF-295 CNS.
In test [11] the test system is SK-OV-3 ovarian.
Test [12] relates to SN12C renal.
Test [13] relates to SNB-75 CNS.
For test [14], the system named is T-47D breast.

With `COc1cccc(NC(=O)CC(=O)N2N=C(C)C(N=Nc3ccc(S(=O)(=O)c4ccc(N=NC5C(=O)N(C(=O)CC(=O)Nc6cccc(OC)c6)N=C5C)cc4)cc3)C2=O)c1` (stereo not given), the TGI in test [1], in test [2], in test [3], in test [4], in test [5] and in test [6] was above 100 µM throughout. Further, the TGI in [7], in test [8], in test [9], in test [10], in test [11] and in [12] was above 100 µM in each case. Moreover, the TGI in test [13] and in test [14] was above 100 µM in each case.
Regarding `COCc1cc2c(cc1/C=C/[N+](=O)[O-])OCO2`, the TGI in [1] turned out to be 30.9 µM; in test [2], 38.4 µM; in test [3] it was 32 µM; in [4], 34 µM; in test [5] it was 44.3 µM; in test [6], 34.6 µM. The TGI in test [7] stood at 51.1 µM; in test [8], 34.3 µM; in test [9], 41.2 µM; in test [10] it was 36.3 µM; in [11], 31.9 µM; in [12], 34 µM. In addition, the TGI stood at 31.9 µM in [13] and 41.8 µM in test [14].
In the case of `S=c1[nH]c(=S)c2cc(Sc3ccc4[nH]c(=S)[nH]c(=S)c4c3)ccc2[nH]1`, the TGI was above 100 µM in test [1]; 52.4 µM in test [2]; above 100 µM in test [3]; above 100 µM in test [4]; 56.1 µM in [5]; above 100 µM in test [6]. Also, the TGI in test [7] is 86.8 µM; in [8], above 100 µM; in test [9], above 100 µM; in [10], 47.1 µM; in [11], 60 µM; in test [12] it was above 100 µM. Moreover, the results for the TGI in [13] and in test [14] were 42.6 µM and above 100 µM, respectively.
`COc1ccc(N=C(Nc2ccc(OC)cc2)C(=Nc2ccc(OC)cc2)Nc2ccc(OC)cc2)cc1`: the TGI in [1], in test [2], in test [3], in test [4], in test [5] and in [6] was above 100 µM each time. In addition, the TGI in [7], in [8], in test [9], in test [10], in [11] and in [12] was above 100 µM each time. For the same compound, the TGI in test [13] was 8.01 µM; in test [14] it was above 100 µM.
Take `c1ccc(-c2nn(-c3ccccc3)[n+](-c3ccccc3)n2)cc1`: the TGI was above 100 µM in test [1]; above 92.4 µM in [2]; 23.7 µM in test [3]; above 56.7 µM in [4]; above 100 µM in test [5]; above 100 µM in [6]. Moreover, the TGI was above 100 µM in test [7]; above 100 µM in test [8]; above 86.3 µM in test [9]; above 100 µM in test [10]; above 100 µM in test [11]; above 100 µM in test [12]. The TGI in test [13] and in test [14] was above 100 µM throughout.
Take `C(=C\C(SCc1ccccc1)SCc1ccccc1)/c1ccccc1`: the TGI in test [1], in [2], in [3], in [4], in test [5] and in test [6] was above 10 µM each time. Also, the TGI in [7], in test [8], in [9], in test [10], in test [11] and in test [12] was above 10 µM in each case. Besides, the TGI in test [13] and in test [14] was above 10 µM in each case.
As for `COc1ccc2c(c1)c1c(n2CCN2CCCCC2)-c2ccccc2CC1`, the TGI in test [1] was 33.3 µM; in test [2], 29.5 µM; in test [3], 20.7 µM; in test [4] it was 31 µM; in test [5], 28.5 µM; in test [6] it was 17.2 µM. The TGI in [7] was found to be 30.3 µM; in test [8], 28.3 µM; in test [9] it was 21.8 µM; in test [10] it was 28.4 µM; in test [11], 40.9 µM; in test [12], 33.5 µM. Further, the TGI in [13] amounted to 35.1 µM; in [14], 35.6 µM.
In the case of `CC(C)=CCC/C(C)=C/CC/C(C)=C/CC/C(C)=C/CC/C(C)=C\CC/C(C)=C/CC/C(C)=C/CC/C(C)=C/Cc1cc(O)ccc1O`, the TGI is above 39.8 µM in [1]; above 100 µM in [2]; above 48.8 µM in test [3]; 1.87 µM in test [4]; 8.93 µM in test [5]; 3.81 µM in [6]. Further, the TGI in test [7] is 1.47 µM; in test [8], 12.5 µM; in test [9], 4.34 µM; in [10] it was 3.76 µM; in [11], 15.6 µM; in [12], above 100 µM. Besides, the TGI was 11.6 µM in test [13] and 50.1 µM in test [14].
Regarding `Cc1cccc2c1NC(=S)[C@@H]1CCCN1C2=O`, the TGI in [1], in [2], in test [3], in test [4], in test [5] and in test [6] was above 100 µM throughout. Also, the TGI in test [7], in [8], in test [9], in test [10], in test [11] and in test [12] was above 100 µM in each case. Further, the TGI in test [13] and in test [14] was above 100 µM each time.
As for `O=[N+]([O-])c1ccc2nc(/C=C(\O)c3ccc(F)cc3)c(/C=C(\O)c3ccc(F)cc3)nc2c1`, the TGI in test [1] is 36.6 µM; in test [2] it was above 100 µM; in [3], above 100 µM; in [4], above 100 µM; in [5], above 100 µM; in test [6], above 100 µM. The TGI in [7] is above 100 µM; in test [8], above 100 µM; in test [9], above 100 µM; in [10], 57.6 µM; in [11], 47.5 µM; in [12], above 100 µM. Further, the TGI in test [13] is 37.5 µM; in test [14], above 100 µM.
